Assay results reported in patent publication US8093231B2, “Sulfonylethyl phosphorodiamidates” (Telik, Inc., priority 2004, dated 2012).
Counter-ions that a name gives are not always drawn. Like-named read-outs stand apart in the source and are kept apart here.

Assays:
[1] = system: MX-1, DLD-1 and LNCap cells; assay: Cytotoxicity/growth inhibition assay, cell line not specified for the statement
Text: The human cancer cell lines DLD-1 (colorectal adenocarcinoma), LNCap (prostate carcinoma), and OVCAR-3 (ovarian carcinoma) were obtained from the American Type Culture Collection, Manassas, Va., U.S.A., and HL-60 (promyeloid myelocytic leukemia), MX-1 (breast carcinoma), P388, and P388ADR from the National Cancer Institute, Bethesda, Md., U.S.A. Carboplatin, doxorubicin, and melphalan were obtained from Sigma-Aldrich Chemical Company, St. Louis, Mo., U.S.A. The CellTiter-Glo assay kit was obtained from Promega Corporation, Madison, Wis., U.S.A., and the Cellular DNA Cytometric Analysis Reagent Kit from Roche Diagnostics Corporation, Indianapolis, Ind., U.S.A. Lambda DNA was obtained from New England Biolabs, Beverly, Mass., U.S.A., and SYBR-Gold from Molecular Probes, Inc., Eugene, Oreg., U.S.A. The DNeasy Tissue Kit was obtained from Qiagen Inc., Valencia, Calif., U.S.A., and AmpliTaq Gold DNA polymerase and PCR reagents from Applied Biosystems, Foster City, Calif., U.S.A. All products were used in accordance with manufacturer's directions. […] The extent of cell growth was expressed as a percentage of the signal from the solvent control wells.
Log-phase cells were trypsinized, collected by centrifugation, and resuspended in a small volume of fresh medium, and the density of viable cells was determined following Trypan Blue staining. […]

[2] = system: DLD-1 (colorectal adenocarcinoma); assay: Cytotoxicity/growth inhibition assay, DLD-1; format: cell-based, human; details: Homo sapiens, DLD-1, 96 h, read-out: IC50 (DLD-1)
In short: (§1)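 Test compounds in DMSO (0.1–200 μM; final DMSO 0.5%) added to freshly diluted cells (3×10^3 cells/mL MX-1 and DLD-1, 6×10^3 cells/mL LNCap), triplicate wells. Cultured ~three doubling times (3 days MX-1, 4 days DLD-1/LNCap). CellTiter-Glo luminescence, 15 min room temperature; growth expressed as % of DMSO solvent control.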

[3] = system: P388 murine leukemia cell line; assay: Cross-resistance assay; format: cell-based; details: P388 vs doxorubicin-resistant derivative; cross-resistant if resistance ratio approximately 2 or higher
Text: (§2) The human cancer cell lines DLD-1 (colorectal adenocarcinoma), LNCap (prostate carcinoma), and OVCAR-3 (ovarian carcinoma) were obtained from the American Type Culture Collection, Manassas, Va., U.S.A., and HL-60 (promyeloid myelocytic leukemia), MX-1 (breast carcinoma), P388, and P388ADR from the National Cancer Institute, Bethesda, Md., U.S.A. Carboplatin, doxorubicin, and melphalan were obtained from Sigma-Aldrich Chemical Company, St. Louis, Mo., U.S.A. The CellTiter-Glo assay kit was obtained from Promega Corporation, Madison, Wis., U.S.A., and the Cellular DNA Cytometric Analysis Reagent Kit from Roche Diagnostics Corporation, Indianapolis, Ind., U.S.A. Lambda DNA was obtained from New England Biolabs, Beverly, Mass., U.S.A., and SYBR-Gold from Molecular Probes, Inc., Eugene, Oreg., U.S.A. The DNeasy Tissue Kit was obtained from Qiagen Inc., Valencia, Calif., U.S.A., and AmpliTaq Gold DNA polymerase and PCR reagents from Applied Biosystems, Foster City, Calif., U.S.A. All products were used in accordance with manufacturer's directions. All assays were conducted in triplicate wells, with dimethyl sulfoxide (DMSO) solvent control. The extent of cell growth was expressed as a percentage of the signal from the solvent control wells.

MX-1 (breast carcinoma) = assay: Cytotoxicity/growth inhibition assay, MX-1; format: cell-based, human; details: Homo sapiens, MX1, 72 h, read-out: IC50 (MX-1)
In short: as §1

OVCAR-3 cell line = assay: Synergism assay; format: cell-based, human
Text: as §2

[4] = system: MX-1 (human breast cancer) tumor; assay: MX-1 xenograft assay, intraperitoneal administration; format: in vivo, athymic nu/nu mice
Procedure: Female athymic nu/nu mice (Harlan, Indianapolis, Ind., U.S.A. or similar vendor), 6-8 weeks old (approximately 20 g), were implanted in the mammary fat pad of the right fore flank with 20-30 mg pieces of MX-1 (human breast cancer) tumor harvested from similar mice that had previously been implanted with the MX-1 tumor. Approximately 7-10 days after tumor transplantation, when the tumor weight was approximately 50-200 mg, the mice were assigned to treatment groups. […] All compounds were active in this assay, with tumor growth inhibition compared to vehicle between 5% (compound 171A) and 99% (compound 13A), with most compounds causing at least 30% tumor growth inhibition. […] Compound 13A was tested at 25, 50, or 100 mg/Kg for 5 or 9 days, causing tumor inhibition between 19% (25 mg/Kg for 5 days) and 99% (100 mg/Kg for 9 days). Compound 70A was tested at 50, 100, and 150 mg/Kg for 5 or 12 days, causing tumor inhibition between 16% (50 mg/Kg for 5 days) and 95% (150 mg/Kg for 12 days).

DLD-1 cells = assay: Cell cycle analysis; format: cell-based, human; details: approximately IC75-85, one and two days, propidium iodide FACS
[5] = system: M7609 engineered to have high, medium, and low levels of GST P1-1; details: murine xenografts; cited from earlier work
[6] = system: ovarian, breast, non-small cell lung, and colorectal cancers; details: cited from earlier work
[7] = system: MCF-7 human breast carcinoma cell line selected for resistance to cyclophosphamide; details: overexpresses GST P1-1; cited from earlier work
[8] = system: M6709 human colon carcinoma cell line selected for resistance to doxorubicin; details: overexpresses GST P1-1; cited from earlier work
[9] = system: in vitro cell culture and tumor biopsies; details: cited from earlier work
Lambda DNA = assay: DNA damage assay; format: biochemical; details: 100 μM and 300 μM, room temperature, one day, PCR amplification

Question: For `O=P(OCCSCCOP(=O)(N(CCCl)CCCl)N(CCCl)CCCl)(N(CCCl)CCCl)N(CCCl)CCCl` [Compound 1CC, di[2-[[bis[bis(2-chloroethyl)amino]phosphinyl]oxy]ethyl]sulfide], which “activity in cytotoxicity/growth inhibition assay” value [1] is on record?
Answer: The value was “active”.

Question: With `O=P(OCCS(=O)(=O)Cc1ccccc1)(N(CCCl)CCCl)N(CCCl)CCCl` [Compound 128A, α-[[2-[[bis[bis(2-chloroethyl)amino]phosphinyl]oxy]ethyl]sulfonyl]toluene] as the compound, how does the IC50 [2] read?
Answer: Its IC50 is 3.2 µM.

Question: What about the cross-resistance with doxorubicin [3] of the same compound?
Answer: The cross-resistance with doxorubicin was “not cross-resistant”.

Question: And the IC50 (MX-1 (breast carcinoma))?
Answer: Its IC50 is 4.5 µM.

Question: And the synergism with carboplatin (OVCAR-3 cell line)?
Answer: Its synergism with carboplatin is “synergistic”.

Question: And the “activity in MX-1 xenograft assay” value ([4]; 100 mg/Kg intraperitoneal once/day for 5, 9, or 14 days)?
Answer: The value was “active”.

Question: What about the “dose dependence of tumor inhibition” value ([4]; intraperitoneal, range of doses and treatment times) of the same compound?
Answer: Its value is “dose-dependent tumor inhibition”.

Question: What about the “cell cycle effect (G2/M cycle block)” value (DLD-1 cells) of the same compound?
Answer: The value was “induced a G2/M cycle block”.

Question: With `N[C@@H](CCC(=O)N[C@@H](CS(=O)(=O)CCOP(=O)(N(CCCl)CCCl)N(CCCl)CCCl)C(=O)N[C@@H](C(=O)O)c1ccccc1)C(=O)O` [canfosfamide hydrochloride] as the compound, how does the “potency versus level of GST P1-1” value [5] read?
Answer: Its value is “positively correlated with the level of GST P1-1”.

Question: What about the clinical activity ([6]; colorectal and breast cancer) of the same compound?
Answer: Its clinical activity is “single agent antitumor activity”.

Question: And the “incidence of clinically significant hematological toxicity” value ([6]; patients treated)?
Answer: The value was “very low incidence”.

Question: And the clinical activity ([6]; patients with non-small cell lung cancer and ovarian cancer)?
Answer: Its clinical activity is “significant single agent antitumor activity and improvement in survival”.

Question: With `N[C@@H](CCC(=O)N[C@@H](CS(=O)(=O)CCOP(=O)(N(CCCl)CCCl)N(CCCl)CCCl)C(=O)N[C@@H](C(=O)O)c1ccccc1)C(=O)O` [canfosfamide, L-γ-glutamyl-3-[[2-[[bis[bis(2-chloroethyl)amino]phosphinyl]oxy]ethyl]sulfonyl]-L-alanyl-2phenyl-(2R)-glycine] as the compound, how does the “potency in resistant line over parental cell line” value [7] read?
Answer: The value was “more potent”.

Question: What about the “potency in resistant line over parental cell line” value [8] of the same compound?
Answer: The value was “more potent”.

Question: And the “cross-resistance to platinum, paclitaxel, doxorubicin and gemcitabine” value [9]?
Answer: Its value is “non-cross-resistant”.

Question: What about the synergism with carboplatin (OVCAR-3 cell line) of the same compound?
Answer: Its synergism with carboplatin is “synergistic”.

Question: And the DNA damage activity (Lambda DNA)?
Answer: The DNA damage activity was “only marginal DNA damage activity”.

Question: And the “cell cycle effect (G2/M cycle block)” value (DLD-1 cells)?
Answer: The value was “induced a G2/M cycle block”.
